Here are results for one compound from patent US20060265770A1, “Transgenic mice containing glutamate receptor (GRIK5) gene disruptions” (priority 2000, published 2006).

This series deals with F2N1 Male Mice. Kind of series: Metrazol Test (seizure susceptibility, tail vein infusion). It is filed as in vivo, mouse. As to conditions: for dose at death, Average ± Stdev / dose at first twitch, Average ± Stdev / dose at tonic extension, Average ± Stdev / dose at tonic/clonic seizure, Average ± Stdev: 5 mg/mL Metrazol infused through tail vein at 0.375 mL/min. The method, then:
A metrazol administration test can be used to screen animals for varying susceptibilities to seizures or similar events. For example, a 5 mg/ml solution of metrazol can be infused through the tail vein of a mouse at a rate of, e.g., approximately 0.375 ml/min. The infusion will cause all mice to experience seizures, followed by death. Those mice that enter the seizure stage the soonest are believed to be more prone to seizures.
To screen for phenotypes involving changes in seizure susceptibility, the Metrazol Test was used. A 5 mg/mL solution of Metrazol was infused through the tail vein of the mouse at a constant rate of 0.375 mL/min. The infusion causes all mice to experience seizures. Those mice who enter the seizure stage the quickest are thought to be more prone to seizures in general.
To screen for phenotypes involving epilepsy, the Metrazol was used. Seven to ten adult wild-type and homozygote males were used. A fresh solution of 5 mg/ml pentylenetetrazole in 0.9% NaCl was prepared prior to testing. Mice were weighed and loosely held in a restrainer. After exposure to a heat lamp to dilate the tail vein, mice were continuously infused with the pentylenetetrazole solution using a syringe pump set at a constant flow rate. The following stages were recorded: first twitch (sometimes accompanied by a squeak), beginning of the tonic/clonic seizure, tonic extension and survival time. The dose required for each phase is determined and the latency to each phase was determined between genotypes. Alterations in any stage may indicate an overall imbalance in excitatory or inhibitory neurotransmitter levels. When compared to age- and gender-matched wild-type (+/+) control mice, homozygous mutant (−/−) mice required a lower dose of metrazol to induce a tonic/clonic seizure (FIG. 5 and Table 1), indicating an increased susceptibility to seizure.

[1] abbreviates: GRIK5 homozygous mutant (−/−) F2N1 male mice.

Regarding `C1CCc2nnnn2CC1` [Metrazol, pentylenetetrazole], under setting [1], the “dose at death, Average ± Stdev” value was determined as 136.12 ± 27.18 mg/kg; the “dose at first twitch, Average ± Stdev” value amounted to 26.38 ± 2.59 mg/kg; the “dose at tonic extension, Average ± Stdev” value is 115.34 ± 28.63 mg/kg; the “dose at tonic/clonic seizure, Average ± Stdev” value stood at 34.02 ± 6.24 mg/kg. In addition, where the note is “homozygous mutant (−/−) mice compared to age- and gender-matched wild-type (+/+) control mice”, the “dose of metrazol to induce a tonic/clonic seizure, in words” value is “lower dose”. In addition, where the note is “wild-type (+/+) F2N1 male mice”, the “dose at death, Average ± Stdev” value is given as 134.29 ± 31.19 mg/kg; the “dose at first twitch, Average ± Stdev” value is recorded as 29.73 ± 3.85 mg/kg; the “dose at tonic extension, Average ± Stdev” value stood at 112.07 ± 29.70 mg/kg; the “dose at tonic/clonic seizure, Average ± Stdev” value was 44.59 ± 9.74 mg/kg.
